Data reported in patent publication US20260216229A1, “PROGRAMMABLE DNA PROTEOLYSIS TARGET CHIMERAS AND METHODS OF THEIR USE” (ARIZONA BOARD OF REGENTS ON BEHALF OF ARIZONA STATE …, priority 2023, published 2026).

Key:
Assay type in all cases: cell-based
[1] = molecular target: T1, CDK6 (Homo sapiens, UniProt Q00534); experiment: Immunofluorescence staining / confocal analysis of CDK6 in U251 cells; details: 20 nM and 100 nM, compared to controls dsDNA, dsDNA-CDK6-i, dsDNA-E3-i
T1 construct: Western blot analysis of CDK6 degradation in U251 cells treated with distance-based DNA-PROTACs; endogenous in cells; host or cells: U-251 MG (U251) glioblastoma cells
T1 sequence (Q00534 whole entry): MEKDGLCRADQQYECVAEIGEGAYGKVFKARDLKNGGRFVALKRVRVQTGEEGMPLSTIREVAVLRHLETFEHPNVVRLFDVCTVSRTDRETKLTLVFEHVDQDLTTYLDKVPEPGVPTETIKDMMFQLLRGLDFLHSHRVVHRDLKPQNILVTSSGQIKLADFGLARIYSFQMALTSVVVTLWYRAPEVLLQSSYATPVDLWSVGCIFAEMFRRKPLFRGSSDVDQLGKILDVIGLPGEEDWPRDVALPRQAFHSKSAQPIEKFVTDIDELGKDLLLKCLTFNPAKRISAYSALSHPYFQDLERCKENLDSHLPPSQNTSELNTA
Method: U-251 MG cells were seeded into 10 mm confocal dishes (Ibidi) and incubated overnight. Subsequently, cells were quickly washed thrice with ice-cold PBS and then fixed with 4% paraformaldehyde for 20 min. After fixation, cells were washed with PBS and permeabilized with 0.1% Triton X-100 at room temperature for 10 min. The samples were then incubated in a blocking solution for 1 h at room temperature, followed by incubation with primary antibody overnight at 4° C. The primary antibody used was mouse CDK6 antibody (Abacm, 1:100). After washing thrice with PBST (PBS with 0.1% Tween 20), the samples were incubated with the secondary antibody in the dark for 1.5 h at room temperature. Cells were washed 3 times in PBST for 5 minutes each then incubated in the appropriate secondary antibodies supplemented CoraLite488-conjugated Goat Anti-Rabbit IgG(H+L) (Proteintech, 1:100) for 3 hrs. The nucleus was counterstained with DAPI (Hoechst 3342, 1 ug/mL) for 20 mins followed by 3 times wash in PBST. Finally, the slides were Imaging by Nikon X confocal.

[2] = molecular target: T1, CDK6; experiment: Western blot of CDK6 degradation in U251 cells transfected with DNA-PROTACs
Method: U-251 MG Glioblastoma Cell Line was grown in Dulbecco's Modified Eagles Medium (DMEM) containing 10% heat inactivated fetal bovine serum (FBS), streptomycin (5 μg/mL) and 5 U/mL penicillin 95 U/mL). All cell lines were maintained, and cell culture experiments were carried out in humidified incubators at 37° C. and 5% CO2 supplementation.
One day prior to DNA-PROTACs transfection, cells were propagated into 6 cm cell culture dishes containing appropriate complete growth medium. Prior to transfection, complete medium was replaced with transfection medium (5% FBS, no Penstrep). DNA-PROTACs transfection was performed using lipofectamine 3000 reagent according to the protocols provided by the manufacture. All transfections were carried out in 6-cm dishes with 3 mL of media and concentrations of DNA-PROTACs were calculated according to this volume (3 mL). Briefly, for 50 nM concentration, 5 μL from a 30 µM DNA-PROTACs stock and 12 μL p3000 reagent was added to a tube containing 125 μL of OPTIM-MEM and 8 μL of Lipofectamine 3000 reagent was added to a separate tube containing 125 μL of OPTIM-MEM. Two tubes were incubated for 5 minutes at room temperature and DNA-PROTACs containing OPTI-MEM was then slowly added to the second tube with lipo3000. The solution in the tube was mixed well by pipetting up and down several times. After incubating for 15-20 minutes at room temperature, 250 μL of DNA-PROTACs-lipofectamine complex was added drop wise onto cells containing the transfection medium. Transfection medium was mixed well before transferring the plate into the incubator. After appropriate time, cells were either harvested or replaced with fresh medium and incubated for desired time point prior to harvesting. For proteasome inhibition assay, 5 μM of MG-132 was incubated with cells for 2 h prior to transfection of DNA-PROTACs. Then, cells were incubated for another 12 h before lysing cells. Cell lysates were prepared by incubating cells in RIPA lysis buffer (25 mM Tris pH 7.6, 150 mM NaCl, 1% NP40, 1% deoxycholate, 0.1% SDS, 1× protease inhibitor cocktail from Roche and 1 mM of PMSF) on ice for 30 minutes and cell lysate was clarified by centrifugation at high speed (15 000 rpm) for 15 minutes. Clear supernatant was collected for further experiments.
Protein concentration in all the cell lysates were measured by BCA protein assay kit and equal amounts from each lysate were mixed with 4×loading dye and boiled for 5 minutes followed by 2 minutes centrifugation prior to loading into SDS-PAGE gel. Next proteins on the SDS-PAGE gel were transferred to a Nitrocellulose membrane by western blotting and the membrane was blocked with 5% milk in TBST (0.05% Tween 20) for 1 h. Primary antibodies (all Abcam antibodies were diluted 1:5000) were prepared in TBST with 2.5% milk and membranes were incubated overnight at 4° C. On the following day, membrane was washes for 15 minutes (Incubate for three times, 5 minutes each) and appropriate secondary antibodies (1:5000) were prepared in TBST and incubated with the membrane for 1 h at room temperature (RT). Membrane was washed for 15 minutes with TBST (incubate for three times, […]) prior to imaging.
The degradation efficiency of various DNA-PROTACs was evaluated through their transfection into U251 cells, conducted simultaneously to ensure uniform experimental conditions. A double-stranded DNA sequence without any ligand was utilized as a negative control, providing a baseline for comparison. Following a 14-hour treatment period, a duration selected based on preliminary time-course studies, the cells were harvested using trypsin digestion. The lysates obtained were then subjected to SDS-PAGE, followed by Western blot analysis to assess protein degradation. […] This finding highlights the efficacy of DNA-PROTAC V02 in targeting and reducing CDK6 protein levels. In comparison, DNA-PROTAC Versions 03 and 04 also facilitated protein degradation, albeit with varying degrees of efficiency. […]

[3] = molecular target: T1, CDK6; experiment: Proteasome inhibition (MG132) assay of CDK6 degradation in U251 cells; details: 8-hour treatment
Method: One day prior to DNA-PROTACs transfection, cells were propagated into 6 cm cell culture dishes containing appropriate complete growth medium. Prior to transfection, complete medium was replaced with transfection medium (5% FBS, no Penstrep). DNA-PROTACs transfection was performed using lipofectamine 3000 reagent according to the protocols provided by the manufacture. All transfections were carried out in 6-cm dishes with 3 mL of media and concentrations of DNA-PROTACs were calculated according to this volume (3 mL). Briefly, for 50 nM concentration, 5 μL from a 30 µM DNA-PROTACs stock and 12 μL p3000 reagent was added to a tube containing 125 μL of OPTIM-MEM and 8 μL of Lipofectamine 3000 reagent was added to a separate tube containing 125 μL of OPTIM-MEM. Two tubes were incubated for 5 minutes at room temperature and DNA-PROTACs containing OPTI-MEM was then slowly added to the second tube with lipo3000. The solution in the tube was mixed well by pipetting up and down several times. […]
Protein concentration in all the cell lysates were measured by BCA protein assay kit and equal amounts from each lysate were mixed with 4×loading dye and boiled for 5 minutes followed by 2 minutes centrifugation prior to loading into SDS-PAGE gel. […]
Subsequent RNA isolation and RT-PCR detection enabled a quantitative assessment of CDK6 and CDK4 mRNA expression levels. […]

[4] = tested on: CDK6 mRNA; experiment: RT-PCR of CDK6 mRNA expression in U251 cells; details: 100 nM, 6 hours
Method: (§1) Subsequent RNA isolation and RT-PCR detection enabled a quantitative assessment of CDK6 and CDK4 mRNA expression levels. […] To further corroborate the mechanistic intricacies of DNA-PROTAC-V02, we probed its interaction with the proteasome pathway. […] Following an 8-hour treatment period, cells were collected, and Western blot analysis was conducted.

[5] = tested on: CDK4 mRNA; experiment: RT-PCR of CDK4 mRNA expression in U251 cells; details: 100 nM, 6 hours
Method: as §1

[6] = molecular target: T2, CDK4 (Homo sapiens, UniProt P11802); experiment: Western blot of CDK4 degradation in U251 cells transfected with DNA-PROTACs
T2 construct: Dose- and Time-dependent Degradation of CDK6 and CDK4 in U251 Cells; endogenous in cells; host or cells: U-251 MG (U251) glioblastoma cells
T2 sequence (P11802 whole entry): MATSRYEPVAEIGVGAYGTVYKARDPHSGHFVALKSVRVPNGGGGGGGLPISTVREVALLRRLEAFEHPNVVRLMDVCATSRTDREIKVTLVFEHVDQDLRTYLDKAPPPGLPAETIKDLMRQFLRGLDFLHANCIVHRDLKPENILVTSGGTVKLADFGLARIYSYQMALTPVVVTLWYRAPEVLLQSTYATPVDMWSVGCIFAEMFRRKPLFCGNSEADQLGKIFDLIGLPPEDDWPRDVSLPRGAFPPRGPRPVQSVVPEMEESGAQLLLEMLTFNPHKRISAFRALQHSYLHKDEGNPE
Method: One day prior to DNA-PROTACs transfection, cells were propagated into 6 cm cell culture dishes containing appropriate complete growth medium. Prior to transfection, complete medium was replaced with transfection medium (5% FBS, no Penstrep). DNA-PROTACs transfection was performed using lipofectamine 3000 reagent according to the protocols provided by the manufacture. All transfections were carried out in 6-cm dishes with 3 mL of media and concentrations of DNA-PROTACs were calculated according to this volume (3 mL). Briefly, for 50 nM concentration, 5 μL from a 30 µM DNA-PROTACs stock and 12 μL p3000 reagent was added to a tube containing 125 μL of OPTIM-MEM and 8 μL of Lipofectamine 3000 reagent was added to a separate tube containing 125 μL of OPTIM-MEM. […]

Substance | intracellular green fluorescence (CDK6 immunofluorescence) [1] | CDK6 degradation ([2]; 50 nM) | time for which CDK6 degradation was sustained ([2]; 50 nM, time course) | CDK6 protein degradation (Western blot) ([2]; 14-hour treatment, 50 nM and 100 nM, vs ligand-free dsDNA control) | concentration at which significant CDK6 degradation begins ([2]; 14 hours, angular series) | concentration at which dose-dependent degradation of CDK6 commences ([2]; dose series) | CDK6 protein (Western blot) without MG132 treatment ([3]; 50 nM, no MG132) | CDK6 protein (Western blot) with MG132 pre-treatment ([3]; MG132 pre-treatment 1 hour, then 50 nM) | CDK6 mRNA levels (RT-PCR) [4] | CDK4 mRNA levels (RT-PCR) [5] | CDK6 protein degradation (target selectivity, controls) [2] | CDK4 protein degradation (target selectivity, controls) [6]
DNA-PROTAC-V02: DNA duplex of E3-i (pomalidomide) strand SEQ ID NO 3 and POI-i (palbociclib) strand SEQ ID NO 4 (chain 1 ACTCCATCTANTTCTACGCCA; chain 2 TGGCGTAGAANTAGATGGAGT; pomalidomide and palbociclib conjugated; modified_base 1 OTHER; Nucleotide with phosphorothioate linkage; modified_base 2 OTHER; modified_base 3 OTHER; misc_difference 11 E3 ligase attached to 3-Dimethoxytrityloxy-2-(3-(fluorenylmethoxycarbonylamino)propanamido)propyl-1-O-(2-cyanoethyl)-(N,N-diisopropyl)-phosphoramidite modified adenosine, cytidine, thymi; m) | weakened intracellular green fluorescence | over 80% | up to 48 hours | most pronounced degradation of CDK6 | 20 nM | 10 nM | reduction in CDK6 protein | rescue of CDK6 proteins | does not elicit a decrease in mRNA levels | does not elicit a decrease in mRNA levels |  | 
DNA-E3 ligand: control: dsDNA with E3 ligand only (chain 1 CTCCATCTATTCTACGCCA; chain 2 TTCTACGCCA; chain 1: DNA, linkages s2 o13 s3 (s phosphorothioate, o phosphodiester), methylation of C not given here; chain 2: DNA, linkages o6 s3 (s phosphorothioate, o phosphodiester), methylation of C not given here; further chemistry not fully specified) [reference compound] |  |  |  |  |  |  |  |  |  |  | did not induce notable protein degradation | did not induce notable protein degradation
